Measured values reported in patent US20240341337A1, “METHOD FOR CREATING MASKING COMPOSITIONS” (GIVAUDAN SA, priority 2021, published 2024).

Legend:
[1] = Antagonist screening for pea protein off-notes on VAS aroma blending device, off-note Ex. B; set-up: key to Off-note Ex. B masking effect: +++ being most effective; ++ in the middle; + some effect; +/− being in between; − being no effect; conditions: off-note channel 2, 0.001% in MCT, flow 150; antagonist channel conc. as in Table 2 c2
Protocol: (§1) In one embodiment, the screening step is carried out using the above described aroma blending device as follows: each off-note molecule(s) identified from a target non-animal derived protein may be loaded into its own individual cartridge or channel (for example, propyl-iso-2-methoxy-3-pyrazine may be loaded into cartridge/channel #1, and isobutyl-3-methoxy-2-pyrazine may be loaded into cartridge/channel #2, etc.); next, the target non-animal protein is diluted as will be discussed below and may be loaded into its own individual cartridge/channel, for example, cartridge/channel #6 to act as the control or base; next, each antagonist candidate molecule that has been identified may be loaded into its own individual cartridge/channel (for example, molasses distillate may be loaded into cartridge/channel #7 and bisabolene may be loaded into cartridge/channel #8, etc). Next, the gas flow on the off-note molecule containing cartridge/channel is first opened, followed by one of the antagonist candidate molecule containing cartridges/channels. The intensity of the flow of the antagonist candidate molecule containing cartridge/channel is adjusted until the off-note is canceled or neutralized by the antagonist candidate molecule, i.e neutralization concentration. This process is repeated for each antagonist candidate molecule containing cartridges/channels so that all of the potential antagonist candidate molecules are screened.
(§2) Selection and screening of the antagonist molecules was performed using the VAS aroma blending device. As described above, each off-note molecule from Table 1 was loaded into its own individual cartridge or channel as shown in Table 2 (#'s 1-5). Each off-note molecule was diluted with medium-chain triglyceride (“MCT”) prior to loading into the cartridge/channel. Next, the target non-animal protein was diluted at 2% plus 0.1% xanthan gum in water with a small amount of antifoam agent (0.01%) and was placed into a cartridge/channel (#21). Each antagonist candidate molecule was then diluted with MCT in a pre-determined concentration and was loaded into a cartridge/channel as shown in Table 2 (#'s 6-20). Next, the gas flow (between 0 to 500 ml/min) on the off-note molecule containing cartridge/channel is first opened, followed by one of the antagonist candidate molecule containing cartridges/channels. The intensity of the flow of the antagonist candidate molecule containing cartridge/channel is adjusted until the off-note is canceled or neutralized by the antagonist candidate molecule, i.e neutralization concentration. This process is repeated for each antagonist candidate molecule containing cartridges/channels so that all of the potential antagonist candidate molecules are screened.
(§3) The numeric number in the column refers the flow rate on VAS aroma blending device.

[2] = Antagonist screening for pea protein off-notes on VAS aroma blending device, off-note Ex. C; set-up: key to Off-note Ex. C masking effect: +++ being most effective; ++ in the middle; + some effect; +/− being in between; − being no effect; conditions: off-note channel 3, 0.01% in MCT, flow 185; antagonist channel conc. as in Table 2 c2
Protocol: as §1, §2, §3

[3] = Antagonist screening for pea protein off-notes on VAS aroma blending device, off-note Ex. E; set-up: key to Off-note Ex. E masking effect: +++ being most effective; ++ in the middle; + some effect; +/− being in between; − being no effect; conditions: off-note channel 5, 1.0% in MCT, flow 150; antagonist channel conc. as in Table 2 c2
Protocol: as §1, §2, §3

[4] = Antagonist screening for pea protein off-notes on VAS aroma blending device, off-note Ex. D; set-up: key to Off-note Ex. D masking effect: +++ being most effective; ++ in the middle; + some effect; +/− being in between; − being no effect; conditions: off-note channel 4, 0.10% in MCT, flow 15; antagonist channel conc. as in Table 2 c2
Protocol: as §1, §2, §3

[5] = Antagonist screening for pea protein off-notes on VAS aroma blending device, off-note Ex. A; set-up: key to Off-note Ex. A masking effect: +++ being most effective; ++ in the middle; + some effect; +/− being in between; − being no effect; conditions: off-note channel 1, 0.01% in MCT, flow 300; antagonist channel conc. as in Table 2 c2
Protocol: as §1, §2, §3

Compound | Off-note Ex. B Flow Rate (antagonist channel) [1] [mL/min] | Off-note Ex. C Flow Rate (antagonist channel) [2] [mL/min] | Off-note Ex. C masking effect [2] | Off-note Ex. E Flow Rate (antagonist channel) [3] [mL/min] | Off-note Ex. E masking effect [3] | Off-note Ex. D masking effect [4] | Off-note Ex. A masking effect [5] | Off-note Ex. B masking effect [1] | Off-note Ex. D Flow Rate (antagonist channel) [4] [mL/min] | Off-note Ex. A Flow Rate (antagonist channel) [5] [mL/min]
CCCCCCCCCCCCCCCC(=O)OCC [Ethyl Palmitate] | 100 | 35 | ++ | 300 | + | − | − |  |  | 
Bisabolene |  |  | − | 150 | + | − | − | − |  | 
CCOC(=O)CCC(=O)OCC [Diethyl Succinate] | 300 | 200 | +/− |  |  | ++ | ++ | ++ | 200 | 250
C=CCOC(=O)CCC1CCCCC1 [Ally1 Cyclohexyl Proprionate] |  | 100 | +++ | 175 | ++ | − | +/− | − |  | 165
Caryophyllene |  |  | − | 200 to 225 | + | ++ | +++ | + | 150 | 100
CCOC(=O)C(C)O (stereo not drawn) [Ethyl lactate] | 100 | 200 | ++ |  |  | ++ | +++ | +++ | 200 | 90
